Experiments:
[1] = target: GDP-bound NRAS wild-type protein (Homo sapiens, UniProt P01111); assay: Binding to NRAS by surface plasmon resonance (SPR), Single Cycle Kinetics
[2] = target: GDP-bound HRAS wild-type protein (Homo sapiens, UniProt P01112); assay: Binding to HRAS by surface plasmon resonance (SPR), Single Cycle Kinetics
[3] = GDP-bound NRAS wild-type vs GDP-bound KRAS wild-type, SPR
[4] = GDP-bound HRAS wild-type vs GDP-bound KRAS wild-type, SPR

Chain of GDP-bound HRAS wild-type protein (P01112 whole entry): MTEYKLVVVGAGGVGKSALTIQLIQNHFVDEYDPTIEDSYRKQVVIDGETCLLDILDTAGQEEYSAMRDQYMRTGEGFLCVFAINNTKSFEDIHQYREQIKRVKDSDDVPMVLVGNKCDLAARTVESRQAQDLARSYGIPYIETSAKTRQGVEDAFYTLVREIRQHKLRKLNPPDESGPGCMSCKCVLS
Chain of GDP-bound NRAS wild-type protein (P01111 whole entry): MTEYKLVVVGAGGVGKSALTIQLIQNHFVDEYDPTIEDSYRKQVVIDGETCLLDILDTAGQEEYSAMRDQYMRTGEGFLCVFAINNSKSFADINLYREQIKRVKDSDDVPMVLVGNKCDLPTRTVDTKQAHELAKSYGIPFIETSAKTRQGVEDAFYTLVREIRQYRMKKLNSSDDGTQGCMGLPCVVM

Q: With `CCC[C@H]1C(=O)N[C@@H]([C@@H](C)CC)C(=O)N(C)CC(=O)N(C)[C@H]2C/C=C\CCN(C2=O)[C@@H](Cc2ccc(C(F)(F)F)cc2)C(=O)N(C)CC(=O)N[C@@H](CCc2cc(F)c(C(F)(F)F)c(F)c2)C(=O)N(CC)CC(=O)NC2(CC(C)(C)C2)C(=O)N(C)[C@@H](C2CCCC2)C(=O)N(C)[C@H](C(=O)N(C)C)CC(=O)N1C` [PP1777] as the compound, how does the “NRAS/KRAS (ratio of KD value for NRAS to KD value for KRAS)” value [1, 3] read?
A: The value was “A (a compound having 10 or more and less than 20 is denoted as A)”.

Q: And the “HRAS/KRAS (ratio of KD value for HRAS to KD value for KRAS)” value [2, 4]?
A: The value was “B (a compound having 3 or more and less than 10 is denoted as B)”.

Q: Which “NRAS/KRAS (ratio of KD value with respect to GDP-bound NRAS wild-type protein to KD value with respect to KRAS)” value ([1]; SPR) does the source give for `CCO[C@@H]1C[C@H]2C(=O)NC3(CCCC3)C(=O)N(C)[C@@H](C3CCCC3)C(=O)N(C)[C@H](C(=O)N(C)C)CC(=O)N(C)[C@@H](C)C(=O)N[C@@H]([C@@H](C)CC)C(=O)N(C)CC(=O)N(C)[C@H]3CCCCN(C3=O)[C@@H](Cc3ccc(C(F)(F)F)cc3)C(=O)N(C)CC(=O)N[C@@H](CCc3cc(F)c(C(F)(F)F)c(F)c3)C(=O)N2C1` [PP0586] here?
A: The value was “C (A compound having a KD ratio of 0.1 or more and less than 3 is denoted as C)”.

Q: And the “HRAS/KRAS (ratio of KD value with respect to GDP-bound HRAS wild-type protein to KD value with respect to KRAS)” value ([2]; SPR)?
A: The value was “B (a compound having 3 or more and less than 10 is denoted as B)”.

Q: For `CCC[C@H]1C(=O)N[C@@H]([C@@H](C)CC)C(=O)N(C)CC(=O)N(C)[C@H]2C/C=C\CCN(C2=O)[C@@H](Cc2ccc(C)cc2)C(=O)N(C)CC(=O)N[C@@H](CCc2cc(F)c(C(F)(F)F)c(F)c2)C(=O)N2C[C@H](C)C[C@H]2C(=O)N(C)C2(CCC2)C(=O)N(C)[C@@H](C2CCCC2)C(=O)N(C)[C@H](C(=O)N(C)C)CC(=O)N1C` [PP1799], which “NRAS/KRAS (ratio of KD value for NRAS to KD value for KRAS)” value [1, 3] is on record?
A: The value was “B (a compound having 3 or more and less than 10 is denoted as B)”.

Q: And the “HRAS/KRAS (ratio of KD value for HRAS to KD value for KRAS)” value [2, 4]?
A: The value was “B (a compound having 3 or more and less than 10 is denoted as B)”.

Q: What does the source list for `CCO[C@@H]1C[C@H]2C(=O)NC3(CCC3)C(=O)N(C)[C@@H](C3CCCC3)C(=O)N(C)[C@H](C(=O)N3CCOCC3)CC(=O)N(C)[C@@H](CC3CCC3)C(=O)N[C@@H]([C@@H](C)CC)C(=O)N(C)CC(=O)N(C)[C@H]3CCCCCN(C3=O)[C@@H](Cc3ccc(C(F)(F)F)cc3)C(=O)N(C)CC(=O)N[C@@H](CCc3cc(F)c(C(F)(F)F)c(F)c3)C(=O)N2C1` [PP0683]?
A: NRAS/KRAS (ratio of KD value with respect to GDP-bound NRAS wild-type protein to KD value with respect to KRAS) ([1]; SPR): B (a compound having 3 or more and less than 10 is denoted as B); HRAS/KRAS (ratio of KD value with respect to GDP-bound HRAS wild-type protein to KD value with respect to KRAS) ([2]; SPR): B (a compound having 3 or more and less than 10 is denoted as B)

Q: For `CCO[C@@H]1C[C@H]2C(=O)NC3(CCC3)C(=O)N(C)[C@@H](C3CCCC3)C(=O)N(C)[C@H](C(=O)N(C)C)CC(=O)N(C)[C@@H](CC3CCCC3)C(=O)N[C@@H]([C@@H](C)CC)C(=O)N(C)CC(=O)N(C)[C@H]3C/C=C\CCN(C3=O)[C@@H](Cc3ccc(C)cc3)C(=O)N(C)CC(=O)N[C@@H](CCc3ccc(CC)c(F)c3)C(=O)N2C1` [PP2686], which “NRAS/KRAS (ratio of KD value with respect to GDP-bound NRAS wild-type protein to KD value with respect to KRAS)” value ([1]; class symbols) is on record?
A: Its value is “A (a compound having 10 or more and less than 20 is denoted as A)”.

Q: And the “HRAS/KRAS (ratio of KD value with respect to GDP-bound HRAS wild-type protein to KD value with respect to KRAS)” value ([2]; class symbols)?
A: The value was “A (a compound having 10 or more and less than 20 is denoted as A)”.

Q: With `CC[C@H](C)[C@@H]1NC(=O)[C@H](COC)N(C)C(=O)C[C@@H](C(=O)N(C)C)N(C)C(=O)[C@H](C2CCCC2)N(C)C(=O)C2(CC(C)(C)C2)NC(=O)[C@@H]2C[C@H](C)CN2C(=O)[C@H](CCc2ccc(C(F)(F)F)c(OC)c2)NC(=O)CN(C)C(=O)[C@H](Cc2ccc(C)cc2)N2CC/C=C\C[C@@H](C2=O)N(C)C(=O)[C@@H]2C[C@H](OC)CN2C1=O` [PP2390] as the compound, how does the “NRAS/KRAS (ratio of KD value with respect to NRAS to KD value with respect to KRAS)” value ([1]; SPR, GDP-bound NRAS wild-type vs GDP-bound KRAS wild-type) read?
A: Its value is “A (a compound having 10 or more and less than 20 is denoted as A)”.

Q: And the “HRAS/KRAS (ratio of KD value with respect to HRAS to KD value with respect to KRAS)” value ([2]; SPR, GDP-bound HRAS wild-type vs GDP-bound KRAS wild-type)?
A: Its value is “B (a compound having 3 or more and less than 10 is denoted as B)”.

Q: Which “NRAS/KRAS (ratio of KD value for NRAS to KD value for KRAS)” value [1, 3] does the source give for `CC[C@H](C)[C@@H]1NC(=O)[C@H](CC(F)F)N(C)C(=O)C[C@@H](C(=O)N(C)CC)N(C)C(=O)[C@H](C2CCCC2)N(C)C(=O)C2(CC(C)(C)C2)NC(=O)[C@@H]2C[C@@H](C)CN2C(=O)[C@H](CCc2ccc(C(F)(F)F)c(Cl)c2)NC(=O)CN(C)C(=O)[C@H](Cc2ccc(C)cc2)N2CC/C=C\C[C@@H](C2=O)N(C)C(=O)CN(C)C1=O` [PP1837] here?
A: Its value is “A (a compound having 10 or more and less than 20 is denoted as A)”.

Q: What about the “HRAS/KRAS (ratio of KD value for HRAS to KD value for KRAS)” value [2, 4] of the same compound?
A: Its value is “A (a compound having 10 or more and less than 20 is denoted as A)”.

Source: patent US20250230193A1, “CYCLIC COMPOUND HAVING SELECTIVE KRAS INHIBITORY EFFECT ON HRAS AND NRAS” (CHUGAI SEIYAKU KABUSHIKI KAISHA, priority 2022, published 2025)
